Measurements reported in patent US12083109B2, “Neurokinin antagonists and uses thereof” (California Institute of Technology, priority 2017, dated 2024).
“Also recorded” adds a separate entry of the source.

Molecular target: T1, hM4DREADD in Tac2+ neurons (Homo sapiens, UniProt P08173, A203G/Y113C)
T1 construct: host or cells: Tac2+ neurons of Tac2-Cre mice (dBNSTa, DMH or CeA), transduced in vivo with AAV2-EF1a-DIO-hM4D-mCherry
T1 sequence (P08173 1-479 Y113C/A203G): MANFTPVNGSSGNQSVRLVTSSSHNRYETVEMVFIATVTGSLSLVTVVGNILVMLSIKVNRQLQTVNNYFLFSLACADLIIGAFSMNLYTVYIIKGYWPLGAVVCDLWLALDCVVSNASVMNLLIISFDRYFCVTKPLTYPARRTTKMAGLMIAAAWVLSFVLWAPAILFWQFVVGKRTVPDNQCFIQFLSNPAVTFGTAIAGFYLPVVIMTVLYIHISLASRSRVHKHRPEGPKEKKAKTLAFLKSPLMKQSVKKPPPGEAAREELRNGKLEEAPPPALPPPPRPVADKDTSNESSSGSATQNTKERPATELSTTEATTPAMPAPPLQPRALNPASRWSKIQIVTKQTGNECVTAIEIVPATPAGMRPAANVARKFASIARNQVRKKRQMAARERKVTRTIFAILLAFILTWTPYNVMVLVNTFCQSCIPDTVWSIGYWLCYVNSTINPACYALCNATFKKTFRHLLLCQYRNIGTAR
Experiment: Resident intruder assay, CNO silencing of Tac2+ neurons (hM4DREADD)
Assay type: in vivo, mouse
Conditions: SIS Tac2-Cre mice, hM4DREADD in DMH; CNO 5 mg/kg i.p.
Description: Testing for aggression using the resident intruder assay (Blanchard et al., 2003; incorporated by reference in its entirety) was performed as previously described (Hong et al., 2015; Hong et al., 2014; Lee et al., 2014; incorporated by reference in their entirety). Briefly, experimental mice (“residents”) were transported in their homecage to a novel behavior testing room (cagemates in group housed mice were removed from the homecage prior to transport for this and all other behavioral tests), where they acclimated for 5-15 minutes. Homecages were then slotted into a customized behavioral chamber lit with a surround panel of infrared lights and equipped with two synchronized infrared video cameras (Pointgrey) placed at 90-degree angles from each other to allow for simultaneous behavior recording with a front and top view. Synchronized video was acquired using Hunter 4.0 software (custom, Pietro Perona lab, Caltech). […] Fighting bouts were scored on a frame-by-frame basis and were defined as a frame during which the resident male was engaged in an episode of biting or intense aggressive behavior immediately surrounding a biting episode. Annotation files were then batch analyzed for behavior, including number of fighting bouts, using in-house customized programs in MATLAB (A. Kennedy, Caltech). […]

C[N+]1([O-])CCN(C2=Nc3cc(Cl)ccc3Nc3ccccc32)CC1 [CNO, clozapine-N-oxide]
aggression: blocked; also recorded: inhibited
